Consider 17 compounds from ChEMBL document CHEMBL3751735, “Discovery of 2-(4-sulfonamidophenyl)-indole 3-carboxamides as potent and selective inhibitors with broad hepatitis C virus genotype activity targeting HCV NS4B” (Bioorg Med Chem Lett, 2016).

As usually defined, the EC50 is the concentration that produces a half-maximal response. Broadly, the IC50 is the midpoint of a concentration-inhibition curve. What is called AUC(0-t) is exposure summed from dosing to a finite time, without extrapolation to infinity. High values mean more exposure, low ones less exposure. Usually Kp stands for the ratio of the level in a tissue or fluid to that in plasma or blood.

The test system of series [1] is Hepatitis C virus. The series can be described thus: Antiviral activity against HCV genotype 2a JFH-1 infected in human HuH7.5 cells assessed as HCV RNA expression measured 72 hrs post dose by qRT-PCR analysis. Format: functional, organism-based, Hepacivirus hominis. The conditions noted are these: JFH-1, Huh-7, 72 h. (In general: Quantitative PCR measures a nucleic acid by following its amplification.)

Series [2] has as its system Hepatitis C virus. The series can be described thus: Antiviral activity against HCV genotype 1b Con1 bicistronic replicon infected in human Huh7 cells assessed as replicon RNA expression measured 3 days post dose by real time RT-PCR analysis. The class given is functional, organism-based, Hepacivirus hominis. The conditions noted are these: isolate Con1, Huh-7, 72 h. (In general: In antiviral work, replicon cells carry a viral genome segment that copies itself.)

The nature of series [3]: Toxicity against human HuH7 cells harboring HCV genotype 1b bicistronic replicon assessed as inhibition of GAPDH mRNA expression measured 3 days post dose by real time RT-PCR analysis. Format: cell-based, Huh-7.
Series [4] has as its system Hepatitis C virus. Description: Antiviral activity against HCV genotype 1a H77S bicistronic replicon infected in human Huh7 cells assessed as replicon RNA expression measured 3 days post dose by real time RT-PCR analysis. Format: functional, organism-based, Hepacivirus hominis. Particulars: Huh-7, 72 h.
For series [5], the system named is Hepatitis C virus. Description: Antiviral activity against HCV genotype 3a S52/SG-Feo(SH) infected in human HuH7.5 cells measured 3 days post dose by Luciferase assay. Format: functional, organism-based, Hepacivirus hominis. The conditions noted are these: Huh-7, 72 h.
Series [6] can be described thus: AUC (0 to 6 hrs) in Sprague-Dawley rat plasma at 10 mg/kg, po measured at 30 mins to 6 hrs post dose. Format: ADME, organism-based. Also on record: dose 10 mg/kg, time < 6 hr, route oral.
Series [7] is described as follows: Ratio of drug level in liver to plasma in Sprague-Dawley rat at 10 mg/kg, po measured 6 hrs post dose. Particulars: liver and plasma. The class given is ADME, organism-based.
The test system of series [8] is Hepatitis C virus. Description: Antiviral activity against HCV genotype 1b harboring NS4B F98C mutant relative to wild type HCV genotype 1b. Format: functional, Hepacivirus hominis.
Series [9] deals with Hepatitis C virus. The series can be described thus: Antiviral activity against HCV genotype 1b harboring NS4B V105M mutant relative to wild type HCV genotype 1b. Format: functional, Hepacivirus hominis.

As to `CC(C)(C)S(=O)(=O)Nc1ccc(-c2c(C(N)=O)c3cc(F)c(OC(F)F)cc3n2C2CCCCC2)c(Cl)c1`, the EC50 in the series with Hepatitis C virus [1] was 28 nM; in the series with Hepatitis C virus [2], 2 nM; with Hepatitis C virus [4] it was < 1 nM; in the series on Hepatitis C virus [5] it was 0.2 nM. The half-inhibitory concentration (IC50) at 3 days in series [3] was > 10000 nM. For the same compound, the AUC(0-t) at 6 h in series [6] was 2.1 µM·h. Further, in [7], the concentration ratio (Kp) at 6 h is 115.

As to `Cc1cc2c(cc1F)c(C(N)=O)c(-c1ccc(NS(=O)(=O)C(C)(C)C)cc1)n2C1CCCC1`, the EC50 is 10 nM in the series with Hepatitis C virus [1], 39 nM in the series with Hepatitis C virus [2], 20 nM in the series with Hepatitis C virus [4] and 317 nM in the series on Hepatitis C virus [5]. Also, the 50% inhibitory concentration (IC50) at 3 days in series [3] is > 10000 nM. Moreover, the AUC(0-t) at 6 h in series [6] worked out at 0.457 µM·h. For the same compound, in [7], the Kp at 6 h came out at 15.

Turning to `CCc1cc2c(cc1F)c(C(N)=O)c(-c1ccc(NS(=O)(=O)C(C)(C)C)cc1)n2C1CCCC1`, the EC50 in the series with Hepatitis C virus [1] came to 20 nM; with Hepatitis C virus [2], 7 nM; in the series on Hepatitis C virus [4] it was 130 nM; in the series on Hepatitis C virus [5] it was 115 nM. In addition, the IC50 at 3 days in [3] was > 10000 nM. The area under the curve AUC(0-t) at 6 h in series [6] worked out at 4.12 µM·h. In [7], the concentration ratio (Kp) at 6 h is 27.

Take `CC(C)(C)S(=O)(=O)Nc1ccc(-c2c(C(N)=O)c3cc(F)c(OC(F)F)cc3n2C2CCCC2)cc1`: the EC50 was found to be 6 nM in the series with Hepatitis C virus [1], 5 nM in the series with Hepatitis C virus [2], 4 nM in the series on Hepatitis C virus [4] and 20 nM in the series on Hepatitis C virus [5]. Further, the IC50 at 3 days in series [3] was > 10000 nM. The AUC(0-t) at 6 h in series [6] is 0.382 µM·h. Besides, the concentration ratio (Kp) at 6 h in [7] came to 47.

As to `CC(C)(C)S(=O)(=O)Nc1ccc(-c2c(C(N)=O)c3cc(F)c(OC(F)F)cc3n2-c2ccccc2)cc1F`, the concentration for a half-maximal effect (EC50) in the series on Hepatitis C virus [2] amounted to 12 nM. Besides, the IC50 at 3 days in series [3] was > 1100 nM.

Turning to `Cc1cc(NS(=O)(=O)C(C)(C)C)ccc1-c1c(C(N)=O)c2cc(F)c(OC(F)F)cc2n1C1CCCCC1`, the EC50 in the series with Hepatitis C virus [1] was determined as 24 nM; with Hepatitis C virus [2], 10 nM; in the series with Hepatitis C virus [4], 1 nM; with Hepatitis C virus [5], 0.5 nM. Also, the IC50 at 3 days in series [3] is > 10000 nM. The AUC(0-t) at 6 h in series [6] was 4.96 µM·h. For the same compound, the partition ratio (Kp) at 6 h in [7] was 62.

On to `CC(C)(C)S(=O)(=O)Nc1ccc(-c2c(C(N)=O)c3cc(F)c(OC(F)F)cc3n2C2CCCCC2)cn1`, for which the EC50 in the series on Hepatitis C virus [1] was 380 nM; in the series with Hepatitis C virus [2], 6 nM; with Hepatitis C virus [4] it was 10 nM; in the series on Hepatitis C virus [5], 119 nM. Also, the IC50 at 3 days in series [3] was > 10000 nM. In series [6], this compound had an AUC(0-t) at 6 h of 0.204 µM·h. Further, the Kp at 6 h in series [7] amounted to 332.

As for `CC(C)(C)S(=O)(=O)Nc1ccc(-c2c(C(N)=O)c3cc(F)c(OC(F)F)cc3n2C2CCCC2)c(F)c1`, the half-maximal effective concentration (EC50) amounted to 6 nM in the series on Hepatitis C virus [1], 2 nM with Hepatitis C virus [2] and 10 nM in the series with Hepatitis C virus [4]. Moreover, in series [3], the 50% inhibitory concentration (IC50) at 3 days was > 10000 nM. This compound showed an exposure AUC(0-t) at 6 h in series [6] of 0.37 µM·h.

For the compound `Cc1cc2c(cc1F)c(C(N)=O)c(-c1ccc(NS(=O)(=O)C(C)(C)C)cc1)n2C1CCC1`, the half-maximal effective concentration (EC50) in the series on Hepatitis C virus [1] was determined as 10 nM; in the series with Hepatitis C virus [2], 45 nM; with Hepatitis C virus [4], 90 nM; with Hepatitis C virus [5], 348 nM. The IC50 at 3 days in [3] is > 10000 nM. The compound also registered an exposure AUC(0-t) at 6 h in [6] of 1.45 µM·h. Moreover, in series [7], the Kp at 6 h is 15.

Turning to `Cc1cc2c(cc1F)c(C(N)=O)c(-c1ccc(NS(=O)(=O)C(C)(C)C)cc1)n2C1CCCCC1`, the EC50 worked out at 135 nM with Hepatitis C virus [1], 2 nM in the series on Hepatitis C virus [2], 8 nM with Hepatitis C virus [4] and 80 nM in the series with Hepatitis C virus [5]. The 50% inhibitory concentration (IC50) at 3 days in [3] is > 10000 nM. This compound registered an area under the curve AUC(0-t) at 6 h in [6] of 0.685 µM·h. Also, in series [7], the concentration ratio (Kp) at 6 h was 11.

In the case of `CC(C)(C)S(=O)(=O)Nc1ccc(-c2c(C(N)=O)c3cc(F)c(OC(F)F)cc3n2C2CCCCC2)cc1`, the EC50 in the series with Hepatitis C virus [1] turned out to be 35 nM; with Hepatitis C virus [2], 2 nM; in the series on Hepatitis C virus [4], 1 nM; with Hepatitis C virus [5], 3 nM. Besides, the IC50 at 3 days in series [3] was > 10000 nM. Further, the AUC(0-t) at 6 h in series [6] turned out to be 0.831 µM·h. In addition, the Kp at 6 h in series [7] stood at 25. The “fold change (FC)” value is given as “>=22” in the series on Hepatitis C virus [8] and >55 with Hepatitis C virus [9].

As for `CC(C)(C)S(=O)(=O)Nc1ccc(-c2c(C(N)=O)c3cc(F)c(OC(F)F)cc3n2-c2ccccc2)cc1`, the EC50 with Hepatitis C virus [1] turned out to be 62 nM; in the series with Hepatitis C virus [2], 2 nM; with Hepatitis C virus [4], 2 nM; in the series on Hepatitis C virus [5] it was 12 nM. In addition, in series [3], the IC50 at 3 days was > 1100 nM. In series [6], this compound yielded an AUC(0-t) at 6 h of 14.4 µM·h. Moreover, in series [7], the Kp at 6 h came out at 26.

With `CC(C)(C)S(=O)(=O)Nc1ccc(-c2c(C(N)=O)c3cc(F)c(OC(F)F)cc3n2C2CCCCC2)c(F)c1`, the 50% effective concentration (EC50) in the series with Hepatitis C virus [1] was found to be 23 nM; in the series on Hepatitis C virus [2], 2 nM; with Hepatitis C virus [4], 2 nM; in the series with Hepatitis C virus [5], 0.4 nM. Moreover, the IC50 at 3 days in series [3] is > 10000 nM. Moreover, the AUC(0-t) at 6 h in series [6] amounted to 3.09 µM·h. For the same compound, the Kp at 6 h in series [7] was 70.

As for `Cc1cc(NS(=O)(=O)C(C)(C)C)ccc1-c1c(C(N)=O)c2cc(F)c(OC(F)F)cc2n1C1CCCC1`, the EC50 in the series on Hepatitis C virus [2] came to 14 nM. In addition, in [3], the IC50 at 3 days worked out at 9100 nM.

For `Cc1cc2c(cc1F)c(C(N)=O)c(-c1ccc(NS(=O)(=O)C(C)(C)C)cc1)n2-c1ccccc1`, the EC50 with Hepatitis C virus [1] was 90 nM; in the series on Hepatitis C virus [2], 14 nM; in the series with Hepatitis C virus [4], 180 nM; with Hepatitis C virus [5], 374 nM. The IC50 at 3 days in series [3] is > 10000 nM. Moreover, the area under the curve AUC(0-t) at 6 h in [6] was 14.9 µM·h. Also, in series [7], the Kp at 6 h was found to be 24.

Regarding `CC(C)(C)S(=O)(=O)Nc1ccc(-c2c(C(N)=O)c3cc(F)c(OC(F)F)cc3n2-c2ccccc2)c(F)c1`, the EC50 with Hepatitis C virus [1] was determined as 37 nM; with Hepatitis C virus [2], 2 nM; in the series on Hepatitis C virus [4] it was 3 nM; with Hepatitis C virus [5] it was 4 nM. Besides, the concentration for half-maximal inhibition (IC50) at 3 days in series [3] was > 10000 nM. In [6], the AUC(0-t) at 6 h turned out to be 7.93 µM·h. The Kp at 6 h in series [7] was 57.

With `CC(C)(C)S(=O)(=O)Nc1ccc(-c2c(C(N)=O)c3cc(F)c(OC(F)F)cc3n2C2CCCC2)c(Cl)c1`, the EC50 was found to be 30 nM with Hepatitis C virus [1], 2 nM in the series on Hepatitis C virus [2], 7 nM with Hepatitis C virus [4] and 58 nM with Hepatitis C virus [5]. Further, in series [3], the half-maximal inhibitory concentration (IC50) at 3 days was found to be 4500 nM. The compound further displayed an exposure AUC(0-t) at 6 h in [6] of 9.96 µM·h. Further, the concentration ratio (Kp) at 6 h in series [7] is 65.
